Values of other authors in patent US20230181564A1, “Potent Tetrahydroquinolone Eliminates Apicomplexan Parasites” (The University of Chicago, priority 2020, published 2023).

System: P. berghei sporozoites
Settings: doses between 1 and 20 mg/kg; not the prodrug; cited from earlier work

## COc1cc2[nH]c(C)c(-c3ccc(Oc4ccc(OC(F)(F)F)cc4)cc3)c(=O)c2cc1Cl [ELQ 300]
  Efficacy in the P. berghei in vivo model: not effective
